Here are results for 1 compound from patent US8008283B2, “Methods and compositions for the treatment of neuropsychiatric disorders” (Neurotherapeutics Pharma, Inc., priority 2005, dated 2011).

One assay relates to hippocampal slices. The settings on record: Pearce, Neuron 10:189, 1993; cited from earlier work.
For another assay, the system named is human patients. The note with it: Haglund and Hochman, J. Neurophysiol. 2005; cited from earlier work.
Assay [1] concerns rats. In words: contextual fear conditioning in rats (freezing). It counts as in vivo, rat. The settings on record: I.V. in DMSO, furosemide 100 mg/kg, bumetanide 50 mg/kg; compared with vehicle alone; FIG. 5. As for the experimental part: Contextual fear conditioning involves pairing an aversive event, in this case moderate foot shock, with a distinctive environment. The strength of the fear memory is assessed using freezing, a species-typical defensive reaction in rats, marked by complete immobility, except for breathing. […] However, if they are allowed to explore the distinctive environment sometime before the immediate shock, they show intense anxiety and fear when placed back into the same environment. We can take advantage of this fact and, by procedurally dividing contextual fear conditioning into two phases, we can separately study effects of treatments on memory for the context (specifically a hippocampus based process) from learning the association between context and shock or experiencing the aversiveness of the shock (which depend upon emotional response circuitry including amygdala). […] The experiment employed 24 rats. […] Each rat was again placed into the same environment for 8 min during which time freezing was measured, as an index of Pavlovian conditioned fear. […] Measurement of freezing was accomplished through an overhead video camera connected to the microcomputer and was automatically scored using a specialty piece of software, FreezeFrame (OER Inc., Reston, Va.). Total freezing time was analyzed in a one-way analysis of variance (ANOVA) test, with drug dose as the […] factor.

Assay [2] concerns rats. Description: fear potentiated startle (FPS) test in rats. Format: in vivo, rat. As for the experimental part: Twenty-four rats received a 30 min period of habituation to the FPS apparatus. Twenty-four hours later, baseline startle amplitudes were collected. The rats were then divided into three matched groups based on baseline startle amplitudes. […] Groups 1 and 2 therefore consisted of 8 rats each, with Group 3 consisting of […]. Following baseline startle amplitude collection, 20 light/shock pairings were delivered on two sessions over two consecutive days (i.e., 10 light/shock pairings per day). […] Immediately following injections, startle amplitudes were assessed during startle alone trials and startle plus fear (light followed by startle) trials. Fear potentiated startle (light+startle amplitudes minus startle alone amplitudes) was compared between the treatment groups.
Animals were trained and tested in four identical stabilimeter devices (Med-Associates). Briefly, each rat was placed in a small Plexiglas cylinder. The floor of each stabilimeter consisted of four 6-mm-diameter stainless steel bars spaced 18 mm apart through which shock can be delivered. Cylinder movements result in displacement of an accelerometer where the resultant voltage is proportional to the velocity of the cage displacement. Startle amplitude is defined as the maximum accelerometer voltage that occurs during the first 0.25 sec after the startle stimulus is delivered. […] Each stabilimeter was enclosed in a ventilated, light-, and sound-attenuating box. All sound level measurements were made with a Precision Sound Level Meter. The noise of a ventilating fan attached to a sidewall of each wooden box produced an overall background noise level of 64 dB. The startle stimulus was a 50 ms burst of white noise (5 ms rise-decay time) generated by a white noise generator. The visual conditioned stimulus employed was illumination of a light bulb adjacent to the white noise source. The unconditioned stimulus was a 0.6 mA foot shock with duration of 0.5 sec, generated by four constant-current shockers located outside the chamber. The presentation and sequencing of all stimuli were under the control of the microcomputer.
FPS procedures consisted of 5 days of testing; during days 1 and 2 baseline startle responses were collected, days 3 and 4 light/shock pairings were delivered, day 5 testing for fear potentiated startle was conducted.
Matching: On the first two days all rats were placed in the Plexiglas cylinders and 3 min later presented with 30 startle stimuli at a 30 sec interstimulus interval.
Training: On the following 2 days, rats were placed in the Plexiglas cylinders. […] The shock was delivered during the last 0.5 sec of the 3.7 sec CSs at an average intertrial interval of 4 min (range, 3-5 min).
These initial startle stimuli were used to again habituate the rats to the acoustic startle stimuli. Thirty seconds after the last of these stimuli, each animal received 60 startle stimuli with half of the stimuli presented alone (startle alone trials) and the other half presented 3.2 sec after the onset of the 3.7 sec CS (CS-startle trials). All startle stimuli are presented at a mean 30 sec interstimulus interval, randomly varying between 20 and 40 sec.
Measures: The treatment groups were compared on the difference in startle amplitude between CS-startle and startle-alone trials (fear potentiation).
The therapeutic efficacy of several bumetanide analogs in alleviating anxiety was examined using the fear potentiated startle (FPS) test in rats as described above.

Assay [3] has as its system hippocampal slices, areas CA1 and CA3. As for the experimental part: Hippocampal slices were prepared from Sprague-Dawley adult rats as described previously. Transverse hippocampal slices 100 μm thick were cut with a vibrating cutter. Slices typically contained the entire hippocampus and subiculum. After cutting, slices were stored in an oxygenated holding chamber at room temperature for at least one hour before recording.
Sharp-electrodes for intracellular recordings from CA1 and CA3 pyramidal cells were filled with 4 M potassium acetate. Field recordings from the CA1 and CA3 cell body layers were acquired with low-resistance glass electrodes filled with 2 M NaCl. For stimulation of the Schaffer collateral or hilar pathways, a small monopolar tungsten electrode was placed on the surface of the slice. Spontaneous and stimulation-evoked activities from field and intracellular recordings were digitized (Neurocorder, Neurodata Instruments, New York, N.Y.) and stored on videotape. AxoScope software (Axon Instruments) on a personal computer was used for off-line analysis of data.
In some experiments, normal or low-chloride medium was used containing bicuculline.
After placement in the interface chamber, slices were superfused at approximately 1 ml/min. At this flow-rate, it took 8-10 minutes for changes in the perfusion media to be completed. All of the times reported here have taken this delay into account and have an error of approximately ±2 minutes.
Single electrical stimuli were delivered to the Schaffer collaterals, midway between areas CA1 and CA3, every 30 seconds so that the field responses in areas CA1 and CA3 could be monitored throughout the duration of each experiment.

Take `NS(=O)(=O)c1cc(C(=O)O)c(NCc2ccco2)cc1Cl` [furosemide]: the “latency of block of a component of the inhibitory currents” value in the assay with hippocampal slices was < 15 min. The “epileptic activity and normal brain activity in humans” value in the assay with human patients was “able to block epileptic activity in humans while not affecting normal brain activity”. Besides, the freezing entry in the assay with rats [1] is “significantly less freezing”. Further, the “difference score one week after treatment” value in the assay on rats [2] (compared with vehicle alone, FIG. 10) is “higher difference score”. In the assay on rats [2] (error bars large for vehicle-treated animals), the “statistical difference from vehicle in difference score one week after treatment” value was “possibly a small difference”. In addition, in the assay on rats [2] (i.v. in DMSO, furosemide 100 mg/kg, bumetanide 70 mg/kg, compared with vehicle alone, FIG. 8), the “difference score (startle alone - fear potentiated startle) on the test day” value is recorded as “statistically significantly lower difference score”. For the same compound, in assay [3] (2.5 mM furosemide), the “order of cessation of spontaneous bursting in CA1 and CA3” value is reported as “ceased in area CA1 before the bursting ceased in area CA3”. For the same compound, the “time CA3 continued to discharge after CA1 became silent” value in assay [3] (2.5 mM furosemide or low-chloride medium) was in the range of 5 to 10 min. Moreover, the “field responses to stimulation of the Schaffer collaterals” value in assay [3] (throughout all stages of the experiments) was “evoked hyperexcited field responses in both the CA1 and CA3 cell body layers”.
